Results taken from patent US10806798B2, “Compound with effects of thrombolysis, free radical scavenging and thrombus-targeting” (Shanghai Lumosa Therapeutics Co., Ltd., priority 2012, dated 2020).

Experiments:
Assay type in all cases: in vivo, SD rats
rats with stroke [1] = assay: Immediate treatment after stroke onset with different dosages of Ie (Zealonga scores)
Experimental: A 10% chloral hydrate solution (400 mg/kg) was injected intraperitoneally into male SD rats (250 to 300 g) for anesthesia. An incision of about 2 cm in length was longitudinally made slightly on the right to the center of the neck, and the right carotid common artery, carotid external artery and carotid internal artery were dissected along the margin of the inner side of sternocleidomastoid muscles. The open incision in the carotid internal artery and the proximal end of the common carotid artery were occluded respectively with noninvasive arterial clips. A small incision was made on the carotid external artery, and the distal end of the carotid external artery was ligated. The arterial clip at the proximal end of the carotid external artery was released, and 10 μl blood was drawn before the proximal end of the common carotid artery was again occluded with a noninvasive arterial clip. The 10 μl blood drawn was placed in a 1 mL EP vial and kept at RT for 30 min until coagulation of blood, and then transferred into a −20° C. refrigerator for 1 h to allow solid coagulation. After 1 h, the blood clots were taken out, added into 1 mL saline, and then broken into relatively uniform microthrombus by using a steel spatula. The microthrombus suspension was then transferred into a 1 mL injector until use. At the same time when the clip on the carotid internal artery of the rat was released, the 1 mL thrombus suspension in the injector was slowly injected from the carotid external artery of the rat to its proximal end, and then was injected into the brain of the rat through the carotid internal artery. Subsequently, the proximal end of the carotid external artery was ligated, the arterial clips on the carotid internal artery and the carotid common artery were released, and blood flow was restored. Injection of urokinase in normal saline (positive control group, at a dosage of 20000 IU/kg), tPA in normal saline (positive control group, at a dosage of 3 mg/kg), normal saline (blank control group, at a dosage of 3 mL/kg), or compound Ie in normal saline (at a dosage of 1 μmol/kg, 0.1 μmol/kg or 0.01 μmol/kg) was carried out. 24 h after the rats were awake, the degree of damage in neural function was evaluated by the Zealonga method. A score of 0 indicated no sign of loss in neural function, 1 indicated the front limbs on the undamaged side could not stretch out, 2 indicated walking toward the undamaged side, 3 indicated tail-chasing walking in circles toward the undamaged side, 4 indicated involuntary walking with disturbance of consciousness, and 5 indicated death. As shown in the results, in rats receiving immediate treatment after the onset of stroke with […] compound Ie, the percentage of rats with a neural function score of 0 was 60%, 30%, and 0%, respectively; and the percentage of rats with a neural function score of 1 was 20%, 30%, and 10%, respectively.

rats with stroke [2] = assay: Successive treatments starting 4 h after the onset of stroke (Zealonga scores)
Experimental: The efficacy was represented by neural function scores, and a lower score indicates higher efficacy. A 10% chloral hydrate solution was injected intraperitoneally into male SD rats at a dosage of 400 mg/kg body weight for anesthesia. A longitudinal incision was made at the center of the neck, and the right carotid common artery trunk was dissected (about 3 cm in length). Carotid external artery branches were each dissected and ligated at the hyoid level, and the carotid internal artery was dissected at the swollen part of the neck. The open incision in the carotid internal artery and the proximal end of the common carotid artery were occluded respectively with noninvasive arterial clips, and the distal end of the carotid external artery was ligated. A catheter containing 0.5 mL thrombus suspension in normal saline was inserted in the carotid external artery trunk. At the same time when the clip on the carotid internal artery was released, the 0.5 mL thrombus suspension in normal saline in the catheter slowly flew from the carotid external artery to its proximal end, and then was injected into the arteries in brain through the carotid internal artery. Subsequently, the proximal end of the carotid artery was ligated, the arterial clips on the carotid internal artery and the common carotid artery were released, and blood flow was restored. After the wound was stitched up, 20,000 IU penicillin was intramuscularly injected for prevention from infection. After 4 h, compound Ie in normal saline (at a dosage of 1 μmol/kg, n=1), urokinase in normal saline (at a dosage of 20000 IU/kg, n=6) or tPA in normal saline (at a dosage of 3 mg/kg, n=6) was infused through the tail vein. Infusion of compound Ie in normal saline through rat tail vein was carried out once per day for 6 consecutive days, observed for 7 days. The rats were compared to themselves each day, and evaluated for degree of damage in neural function by the Zealonga method. Alternatively, infusion of urokinase in normal saline through rat tail vein was carried out once per day for two consecutive days, the rats were compared to themselves each day, and evaluated for the degree of damage in neural function by the Zealonga method. Alternatively, infusion of tPA in normal saline through rat tail vein was carried out once per day for two consecutive days, the rats were compared to themselves each day, and evaluated for the degree of damage in neural function by the Zealonga method. A score of 0 indicated no sign of loss in neural function, 1 indicated the front limbs on the undamaged side could not stretch out, 2 indicated walking toward the undamaged side, 3 indicated tail-chasing walking in circles toward the undamaged side, 4 indicated involuntary walking with disturbance of consciousness, and 5 indicated death.

rats with stroke [3] = assay: Successive treatments with 1 μmol/kg Ie starting 6 h after the onset of stroke (Zealonga scores)
Experimental: The efficacy was represented by neural function scores, and a lower score indicates higher efficacy. A 10% chloral hydrate solution was injected intraperitoneally into male SD rats at a dosage of 400 mg/kg body weight for anesthesia. A longitudinal open incision was made at the center of the neck, and the right common carotid artery trunk was dissected (about 3 cm in length). Carotid external artery branches were each dissected and ligated at the hyoid level, and the carotid internal artery was dissected at the swollen part of the neck. The open incision in the carotid internal artery and the proximal end of the common carotid artery were occluded respectively with noninvasive arterial clips, and the distal end of the carotid external artery was ligated. A catheter containing 0.5 mL thrombus suspension in normal saline was inserted in the carotid external artery trunk. At the same time when the clip on the carotid internal artery was released, the 0.5 mL thrombus suspension in normal saline in the catheter slowly flew from the carotid external artery to its proximal end, and then was injected into the arteries in brain through the carotid internal artery. Subsequently, the proximal end of the carotid artery was ligated, the arterial clips on the carotid internal artery and the common carotid artery were released, and blood flow was restored. After the wound was stitched up, 20,000 IU penicillin was intramuscularly injected for prevention from infection. After 6 h, compound Ie in normal saline (at a dosage of 1 μmol/kg, n=11), urokinase in normal saline (at a dosage of 20000 IU/kg, n=6) or tPA in normal saline (at a dosage of 3 mg/kg, n=6) was infused through the tail vein. Infusion of compound Ie in normal saline through rat tail vein was carried out once per day for 6 consecutive days, observed for 7 days. The rats were compared to themselves each day, and evaluated for the degree of damage in neural function by the Zealonga method. Alternatively, infusion of urokinase in normal saline through rat tail vein was carried out once per day for two consecutive days, the rats were compared to themselves each day, and evaluated for the degree of damage in neural function by the Zealonga method. Alternatively, infusion of tPA in normal saline through rat tail vein was carried out once per day for two consecutive days, the rats were compared to themselves each day, and evaluated for the degree of damage in neural function by the Zealonga method. A score of 0 indicated no sign of loss in neural function, 1 indicated the front limbs on the undamaged side could not stretch out, 2 indicated walking toward the undamaged side, 3 indicated tail-chasing walking in circles toward the undamaged side, 4 indicated involuntary walking with disturbance of consciousness, and 5 indicated death.

[4] = Day 1, tPA 3 mg/kg once per day from 4 h after stroke onset, n=6
[5] = Day 2, tPA 3 mg/kg once per day from 4 h after stroke onset, n=6
[6] = Day 1, tPA 3 mg/kg once per day from 6 h after stroke onset, n=6
[7] = Day 2, tPA 3 mg/kg once per day from 6 h after stroke onset, n=6

## tPA: tissue-type plasminogen activator, positive control
Rats with stroke [1]; 3 mg/kg tPA
  percentage of rats with a neural function score of 0: 40%
  percentage of rats with a neural function score of 1: 10%
Rats with stroke [1]; tPA 3 mg/kg, n = 10
  number of rats scored Score 0: 4
  number of rats scored Score 1: 1
  number of rats scored Score 2: 1
  number of rats scored Score 3: 3
  number of rats scored Score 4: 1
  number of rats scored Score 5: 0
Rats with stroke [2]; [4]
  number of rats scored Score 1: 2 rats
  number of rats scored Score 2: 3 rats
  number of rats scored Score 3: 1 rat rats
Rats with stroke [2]; [5]
  number of rats scored Score 0: 2 rats
  number of rats scored Score 1: 2 rats
  number of rats scored Score 2: 1 rat^ rats
Rats with stroke [2]; after two doses, tPA 3 mg/kg each day from 4 h after stroke onset, 6 rats
  rats recovered to have only the sign of slight loss in neural function: 2 rats
Rats with stroke [2]; out of 6 rats, within 24 h, tPA 3 mg/kg each day from 4 h after stroke onset
  rats died: 1
Rats with stroke [2]; tPA 3 mg/kg each day from 4 h after stroke onset
  autopsy on the dead rat: hemorrhage in internal organs, particularly severe hemorrhage in lungs
Rats with stroke [3]; [6]
  number of rats scored Score 0: 1 rat^ rats
  number of rats scored Score 1: 1 rat rats
  number of rats scored Score 2: 1 rat rats
  number of rats scored Score 3: 1 rat rats
  number of rats scored Score 4: 2 rats
Rats with stroke [3]; [7]
  number of rats scored Score 0: 2 rats
  number of rats scored Score 2: 1 rat rats
  number of rats scored Score 3: 1 rat rats
Rats with stroke [3]; after two doses, tPA 3 mg/kg each day from 6 h after stroke onset, 6 rats
  rats recovered to have only the sign of slight loss in neural function: 2 rats
Rats with stroke [3]; out of 6 rats, within 24 h, tPA 3 mg/kg each day from 6 h after stroke onset
  rats died: 2
Rats with stroke [3]; tPA 3 mg/kg each day from 6 h after stroke onset
  autopsy on the dead rats: hemorrhage in internal organs, particularly severe hemorrhage in lungs
